Data reported in patent US5081234A, “4'-demethylepipodophyllotoxin glycosides” (Bristol-Myers Squibb Co., priority 1990, dated 1992).
≈ marks a conversion by molar mass, not a printed value.

Legend:
[1] = system: Murine melanoma B16-F10 cells; assay: In vitro cytotoxicity vs B16-F10 (72 h, neutral red staining); format: cell-based; conditions: Mus musculus, neutral red at 540 nm
Method: Murine melanoma B16-F10 cells were grown and maintained at 37° C. under a humidified atmosphere in a 5% CO2 incubator in Eagle's MEM medium (Nissui) containing kanamycin (60 μg/ml), and supplemented with heat inactivated fetal calf serum (10%) and non-essential amino acids (0.6%). For in vitro cytotoxicity experiments, exponentially growing B16-F10 cells were harvested, counted, and suspended in the culture medium at the concentration of 2.0×10^4 cells/ml. Twenty-four hours after planting cell suspension (180 μl ) into wells of a 96-well microtiter plate, test materials (20 μl) were added to the wells and the plates were incubated for 72 hours. The cytotoxic activity against B16-F10 cells was colorimetrically determined at 540 nm after staining viable cells with neutral red solution.

[2] = system: murine P388 lymphocytic leukemia; assay: In vivo antitumor activity against murine P388 lymphocytic leukemia; set-up: species or system mice (female CDF1); conditions: median survival time treated/control; P388 i.p. day 0, i.p. once on day 1 (Q1D×1), observed 45 days; maximum T/C, at dose (mg/kg): D 30, E 120, F 60, G 120, H 30, I 10, K 10, Etoposide 120; >125% considered significant
Method: Representative compounds of the present invention were evaluated against murine P388 lymphocytic leukemia. Female CDF1 mice were inoculated with 1.0×10^6 of leukemia cells intraperitoneally (day 0), and test materials were intraperitoneally administered to mice once on day 1 (Q1D×1). […] The median survival time (MST) of each group was recorded, and antitumor activity was expressed as T/C % values calculated by the following equation:
T/C%=(MST of treated.div.MST of control)×100

COc1cc([C@@H]2c3cc4c(cc3[C@@H](O[C@H]3OC[C@@H](O)[C@@H](O)[C@@H]3O)[C@H]3COC(=O)[C@H]23)OCO4)cc(OC)c1O [Compound K, 4'-Demethyl-4-O-(α-D-arabinopyranosyl)epipodophyllotoxin]
IC50 [1]: 28 mg/L (≈ 52.6 µM)
Antitumor Activity vs P388, Max % T/C [2]: 125%

COc1cc([C@@H]2c3cc4c(cc3[C@@H](O[C@@H]3OC[C@H]5OC(C)O[C@H]5[C@H]3O)[C@H]3COC(=O)[C@H]23)OCO4)cc(OC)c1O (stereo partly drawn) [Compound G, 4'-Demethyl-4-O-(3,4-O-ethylidene-β-D-ribopyranosyl)epipodophyllotoxin]
IC50 [1]: 2.5 mg/L (≈ 4.48 µM)
Antitumor Activity vs P388, Max % T/C [2]: 152%

COc1cc([C@@H]2c3cc4c(cc3[C@@H](O[C@@H]3OC[C@@H](O)[C@@H](O)[C@H]3O)[C@H]3COC(=O)[C@H]23)OCO4)cc(OC)c1O [Compound F, 4'-Demethyl-4-O-(β-D-ribopyranosyl)epipodophyllotoxin]
IC50 [1]: 1 mg/L (≈ 1.88 µM)
Antitumor Activity vs P388, Max % T/C [2]: 181%

COc1cc([C@@H]2c3cc4c(cc3[C@@H](O[C@@H]3OC[C@@H](OC(C)=O)[C@@H](OC(C)=O)[C@H]3OC(C)=O)[C@H]3COC(=O)[C@H]23)OCO4)cc(OC)c1O [Compound E, 4'-Demethyl-4-O-(2,3,4-tri-O-acetyl-β-D-ribopyranosyl)epipodophyllotoxin]
IC50 [1]: 4 mg/L (≈ 6.07 µM)
Antitumor Activity vs P388, Max % T/C [2]: 171%

COc1cc([C@@H]2c3cc4c(cc3[C@@H](O[C@H]3OC[C@@H](O)[C@H](O)[C@H]3O)[C@H]3COC(=O)[C@H]23)OCO4)cc(OC)c1O [Compound I, 4'-Demethyl-4-O-(α-D-xylopyranosyl)epipodophyllotoxin]
IC50 [1]: 2.3 mg/L (≈ 4.32 µM)
Antitumor Activity vs P388, Max % T/C [2]: 140%

COc1cc([C@@H]2c3cc4c(cc3[C@@H](O[C@@H]3O[C@@H]5CO[C@@H](C)O[C@H]5[C@H](O)[C@H]3O)[C@H]3COC(=O)[C@H]23)OCO4)cc(OC)c1O [Etoposide, reference compound]
IC50 [1]: 0.21 mg/L (≈ 0.357 µM)

COc1cc([C@@H]2c3cc4c(cc3[C@@H](O[C@@H]3O[C@H](CO)[C@@H](O)[C@H]3O)[C@H]3COC(=O)[C@H]23)OCO4)cc(OC)c1O [Compound D, 4'-Demethyl-4-O-(β-D-ribofuranosyl)epipodophyllotoxin]
IC50 [1]: 18 mg/L (≈ 33.8 µM)
Antitumor Activity vs P388, Max % T/C [2]: 130%

COc1cc([C@@H]2c3cc4c(cc3[C@@H](O[C@@H]3OC[C@@H](O)[C@H](O)[C@H]3O)[C@H]3COC(=O)[C@H]23)OCO4)cc(OC)c1O [Compound H, 4'-Demethyl-4-O-(β-D-xylopyranosyl)epipodophyllotoxin]
IC50 [1]: 0.53 mg/L (≈ 0.995 µM)
Antitumor Activity vs P388, Max % T/C [2]: 150%
